Test results from patent publication US10220025B1, “Self-emulsifying formulation of CARP-1 functional mimetics” (Florida A&M University, priority 2016, dated 2019).
“Also recorded” adds a separate entry of the source. Read-outs that look alike come from different tables or passages of the source. Each block holds one compound with its values, some of them ahead of it.

Tests used:
[1] = test system: MDA-MB-231 TNBC cells, wild type; experiment: MTT viability assay, parental MDA-MB-231; assay type: cell-based, human
Procedure: (§2) In vitro inhibition of cell growth was assessed by MTT (3-[4, 5-dimethyltiazol-2-yl]-2.5-diphenyl tetrazolium bromide) reagent. Cells (5×10^3) were seeded in a 96-well culture plate and subsequently treated with respective agents at different concentrations as mentioned. Control cells were treated with 0.1% DMSO in culture medium. After treatment, the cells were incubated with 1 mg/ml of MTT reagent at 37° C. for 2-4 hours and then MTT was removed and 50 μL of DMSO was added, followed by colorimetric analysis using a multi-label plate reader at 560 nm (Victor3; PerkinElmer, Wellesley, Mass., USA).

[2] = test system: 4T1 TNBC cells, wild type; experiment: MTT viability assay, parental 4T1; assay type: cell-based, mouse; settings: Mus musculus; 72 h; Wild type
Procedure: as §2

[3] = test system: Adriamycin-resistant (ADR-R) MDA-MB-231 sublines; experiment: MTT viability assay, ADR-resistant MDA-MB-231 sublines; assay type: cell-based; settings: Homo sapiens, 72 h, ADR-R Clones 1-6
Procedure: (§1) Human TNBC MDA-MB-468 and MDA-MB-231, and mouse TNBC 4T1 cells were cultured in the chronic presence (>10 months) of Doxorubicin. The parental, wild-type cells were initially treated with 200 nM Doxorubicin for 2-3 weeks, followed by escalation to 400 nM, 1 μM, and 2 μM doses over a period of 3-4 weeks for each dose till resistance developed and the cells became well adapted to growth in […] of Doxorubicin for their routine culture. In the case of Cisplatin however, the human TNBC MDA-MB-468 and MDA-MB-231 were initially cultured in continuous presence of 1 μM Cisplatin for 3-4 weeks, and the dose was escalated to 1.5 μM and 3 μM over periods of 3-4 weeks for each dose till resistance developed and cells became adapted to routine culture in 3 μM dose. Subsequent, routine maintenance of the resistant cells in the presence of the respective drug was continued and multiple, resistant sublines for each of the TNBC cells were isolated and characterized for their growth inhibitory (GI)50 dose of respective therapeutic by the MTT-based viability assays as below.

[4] = test system: drug-resistant TNBC cells; experiment: MTT viability assay, drug-resistant TNBC sublines (not singled out); assay type: cell-based; settings: read-out: GI50 dose, doxorubicin-resistant TNBC cells
Procedure: as §1

[5] = test system: CSC-enriched populations from xenografts of parental and ADR-resistant MDA-MB-231 TNBC cells; experiment: MTT viability of tumor-derived CSC-enriched cells; assay type: cell-based, human; settings: dose-dependent; FIG. 15C
Procedure: The CSC-enriched cells were then treated with ADR, CFM-4.16, or a combination of both for noted dose and time. The cell viabilities were determined by MTT-based assay as in FIGS. 3A-3C, and plotted relative to the MTT values for the respective untreated controls. The histogram columns in panels B and C represent means of three and four independent experiments, respectively; bars, S.E. α, αα, β, ββ, ^*,**,#,##p=<0.03 relative to respective cells treated with ADR+CFM-4.16.
The TNBC cells were obtained from tumors derived from parental and drug-resistant cells or from a two-dimensional culture plate with ˜70-80% confluence. The cells were washed twice in 1×PBS and trypsinized following established protocols. […]
It was next clarified whether and to the extent CFM-4.16 was able to interfere with growth of mammospheres derived from parental and drug-resistant TNBC-cells. […] The growing mammosphere cultures were then exposed to CFM-4.16, and the viabilities of untreated and treated cultures were determined by an MTT-based assay. […]

[6] = test system: Adriamycin-resistant (ADR-R) 4T1 sublines; experiment: MTT viability assay, ADR-resistant 4T1 sublines; assay type: cell-based; settings: Mus musculus; 72 h; ADR-R Clones 1-6
Procedure: Human TNBC MDA-MB-468 and MDA-MB-231, and mouse TNBC 4T1 cells were cultured in the chronic presence (>10 months) of Doxorubicin. The parental, wild-type cells were initially treated with 200 nM Doxorubicin for 2-3 weeks, followed by escalation to 400 nM, 1 μM, and 2 μM doses over a period of 3-4 weeks for each dose till resistance developed and the cells became well adapted to growth in 1 μM dose of Doxorubicin for their routine culture. […] Subsequent, routine maintenance of the resistant cells in the presence of the respective drug was continued and multiple, resistant sublines for each of the TNBC cells were isolated and characterized for their growth inhibitory (GI)50 dose of respective therapeutic by the MTT-based viability assays as below.
as §2

[7] = test system: Adriamycin-resistant (ADR-R) MDA-MB-468 sublines; experiment: MTT viability assay, ADR-resistant MDA-MB-468 sublines; assay type: cell-based, human
Procedure: as §1

[8] = test system: TNBC cells; experiment: MTT viability assay, parental TNBC cells (lines not singled out); assay type: cell-based
Procedure: as §2

[9] = test system: MDA-MB-468 TNBC cells, wild type; experiment: MTT viability assay, parental MDA-MB-468; assay type: cell-based, human
Procedure: as §2

[10] = test system: parental and drug-resistant TNBC and SKBR-3 cells; experiment: soft-agar clonogenic assay; assay type: cell-based; settings: 10 μM; FIGS. 11D, 12C, 12D, 13C
Procedure: A soft-agar sandwich assay was performed. Cells were sandwiched between 0.6% and 0.3% agarose in DMEM medium containing 5% FBS in a six-well chamber (500 cells/chamber), and treated with buffer (Control), or respective agent for noted time and dose at 37° C. humidified CO2 incubator. The colonies from multiple random fields were counted, compared to control and photographed essentially as described before [Jamal S, Cheryan V T, Muthu M, Munie S, Levi E, Ashour A E, Pass H I, Wali A, Singh M, Rishi A K. CARP-1 functional mimetics are a novel class of small molecule inhibitors of malignant pleural mesothelioma cells. PLos One. 2014; 9:e891; Ashour A E, Jamal S, Cheryan V T, Muthu M, Zoheir K M A, Alafeefy A M, Abd-allah A R, Levi E, Tarca A L, Polin L A, Rishi A K. CARP-1 functional mimetics: A novel class of small molecule inhibitors of medulloblastoma cell growth. PLoS One. 2013; 8:e66733; Zhang L, Levi E, Majumder P, Yu Y, Aboukameel A, Du J, Xu H, Mohammad R M, Hatfield J S, Wali A, Adsay V, Majumdar A P N, Rishi A K. Transactivator of transcription tagged cell cycle and apoptosis regulatory protein-1 peptides suppress growth of human breast cancer cells in vitro and in vivo. Mol Cancer Ther. 2007; 6:1661-1672].

[11] = test system: Src, MET, and STAT3 kinases in TNBC cells; experiment: Western blot, oncogenic tyrosine kinases; assay type: cell-based; settings: parental and drug-resistant human and murine TNBC cells
Procedure: For protein expression analysis, Western blot (WB) experiments were performed according to the standard procedures. The cells were either untreated or treated with various agents either alone or in combinations as indicated. Following treatment durations, the cells were lysed in cell lysis (10×) buffer (#9803; cell signaling) containing 0.1% of protease and phosphatase inhibitor cocktail (Sigma) for 20 min at 4° C. The lysates were centrifuged at 14,000 rpm at 4° C. for 15-20 min to remove debris. Protein concentrations of whole cell lysates were determined using the Protein Assay Kit. Supernatant proteins, 50-100 μg from each sample, were separated by SDS-polyacrylamide gel electrophoresis (SDS-PAGE) and transferred to polyvinylidene difluoride (PVDF) membrane (Bio-rad, Hercules, Calif.) by standard procedures. […] The antibody-bound proteins were visualized by treatment with the chemiluminescence detection reagent according to manufacturer's instructions, followed by exposure to X-ray film (Denville Scientific Inc.). The same membranes were re-probed with the anti-β-actin or anti-α-tubulin antibody, which was used as an internal control for protein loading.

[12] = test system: TNBC and NSCLC cells; settings: cited from earlier work
[13] = test system: parental and drug-resistant TNBC and SKBR-3 cells; experiment: scratch/wound healing cell migration assay; assay type: cell-based; settings: FIGS. 11B, 11C, 12A, 12B, 13A, 13B
Procedure: The TNBC cells migration in the absence or presence of CFMs was measured by the “scratch/wound healing” assay. Cells were seeded in a 6-well plate (˜10,000 cells/well), and when attached, a scratch was created in the cell monolayer using sterile pipette tip. The cells were then allowed to continue growing in the absence (Control) or presence of noted dose of each of the agents for indicated time periods. The cells were photographed at the beginning and at regular intervals during the treatment period, and the images from control cells were compared with the treated cells to determine the migration of the cells essentially as described before [Liang C C, Park A Y, Guan J L In vitro scratch assay: a convenient and inexpensive method for analysis of cell migration in vitro. Nat Protoc. 2007; 2:329-33]. The photomicrographs of the cells were recorded under different magnifications utilizing Zeiss microscope with attached 35 mm camera.

[14] = test system: TNBC and non-small cell lung cancer cell-derived xenografts; settings: SCID mice; cited from earlier work
[15] = test system: HUVECs; experiment: in vitro tubule formation (angiogenesis) assay; assay type: cell-based, human; settings: 12 hours; FIG. 11A
Procedure: The growth of tubules was monitored over a period of 12 hours. The cells growth in the scratch assay was recorded by photography. Representative photomicrographs of control and treated cells are presented.
It was next investigated whether CFM-4.16 inhibited TNBC cell migration and growth as colonies in soft agar and 3-dimensional cultures in vitro. In addition, an in vitro tubule formation assay was conducted to determine anti-angiogenic properties of CFM-4.16. […] Moreover, treatments with CFM-4 or CFM-4.16 prevented the parental as well as drug (ADR- or cisplatin-) resistant TNBC sublines and the parental and Herceptin-resistant, Her-2-positive SKBR-3 cells from growing in the areas of wound caused by a scratch (FIGS. 11B, 11C, 12A, 12B, 13A, and 13B).

[16] = solubility observations; assay type: physicochemical

GI50 [3]: > 10 µM
GI50 [6]: > 10 µM
GI50 ([7]; Homo sapiens, MDA-MB-468, 72 h, ADR-R Clones 1-6): ~10 µM
Structure (SMILES): COc1cccc2c1C(=O)c1c(O)c3c(c(O)c1C2=O)C[C@@](O)(C(=O)CO)C[C@@H]3O[C@H]1C[C@H](N)[C@H](O)[C@H](C)O1 [Adriamycin, Doxorubicin, reference compound]
GI50 ([1]; Homo sapiens, MDA-MB-231, 72 h, Wild type): < 100 nM
GI50 [2]: ~100 nM
GI50 [4]: ≥ 10 µM
viabilities of CSC enriched TNBC cells vs untreated [5]: significant loss of viabilities
GI50 dose higher than wild-type, parental counterparts ([7]; ADR-resistant MDA-MB-468 vs parental): ≥ 500 fold
GI50 ([8]; 72 h treatment period, read-out: GI50 doses, both the parental TNBC cell lines): < 100 nM
GI50 ([8]; read-out: GI50 dose, parental cells): 20 to 100 nM
GI50 ([9]; Homo sapiens, MDA-MB-468, 72 h, Wild type): ~20 nM

aqueous solubility [16]: poor aqueous solubility
Structure (SMILES): O=C1N(Cc2ccccc2Cl)c2ccccc2C12NN=C(c1ccccc1)S2 (stereo not drawn) [CFM-4]
inhibition / loss of cell viability ([1]; 10 μM dose): ~30%
colonies formed in soft agar [10]: significant reduction in size and number of colonies
activation and/or expression of MET and Src tyrosine kinases [11]: reduced activation and/or expression
growth of TNBC and NSCLC cells [12]: inhibited growth
growth of cells in the areas of wound caused by a scratch [13]: prevented
xenograft growth inhibition / T/C, intravenous DMSO+cremophor preparation [14]: failed to inhibit growth; also recorded: lack therapeutic T/C values
tubule formation by HUVECs compared with untreated control [15]: disruption of tubule formation
effect of siRNA-mediated depletion of CARP-1 on growth inhibition by the compound ([7]; ADR-resistant MDA-MB-468 subline 1, FIG. 5E): interfered with growth inhibition
inhibition / loss of cell viability ([9]; 10 μM dose): ~45%
